≈ marks a conversion by molar mass, not a printed value. Where two headings read alike, the source gives them in different places. Numbered stars: 1 amine (or outer) side, 2 acyl side, 3 side chain; on linkers, the order of the positions; unused ones are H or OH. Bridge positions count the residues as written; N and C are the ends. Square brackets hold non-standard residues; d marks the D form. Peptide text beside a SMILES is read from it. * marks the point of attachment. Lys(Me,(CH2)4NMe(CH2)5CO) = CN(CCCCCC(=O)[*:3])CCCCN(C)CCCC[C@H](N[*:1])C(=O)[*:2]; Lys(Me,(CH2)4NMe(CH2)4CO) = CN(CCCCC(=O)[*:3])CCCCN(C)CCCC[C@H](N[*:1])C(=O)[*:2]; X3 = Cc1cccc2c(C[C@H](N[*:1])C(=O)[*:2])cn(C)c12; Trp(7-Me) = Cc1cccc2c(C[C@H](N)C(=O)O)c[nH]c12; NH(2-(3-pyridyl)ethyl) = c1cncc(CCN*)c1; Sebacoyl = O=C(CCCCCCCCC(=O)[*:2])[*:1]; αMeLys(Me2) = CN(C)CCCC[C@](C)(N)C(=O)O; 2Nal = N[C@@H](Cc1ccc2ccccc2c1)C(=O)O; 3Pal = N[C@@H](Cc1cccnc1)C(=O)O; Lys(Me) = CNCCCC[C@H](N)C(=O)O; Aun = NCCCCCCCCCCC(=O)O; Thp = NC1(C(=O)O)CCOCC1; Me2NCH2CH2 = CN(C)CC*; Aib = CC(C)(N)C(=O)O; Sar = CNCC(=O)O
Tests used:
[1] = Chemical stability (relative purity loss) of peptide compounds in buffer formulations (Table 6); format: physicochemical; conditions: 2° C. and 37° C.
Description: Purity of a peptide batch was determined through UHPLC/MS method A prior to chemical stability measurement.
For stability assessment, the target concentration was 0.5 mg pure compound/ml. Therefore, solutions from solid samples were prepared in a buffer system at a concentration of 0.5 mg/mL compound. The solid samples were obtained by drying down aliquots of a freshly prepared acetonitrile stock solution using a THERMO SPEEDVAC vacuum centrifuge. The dry down time was 3 hours.
The following buffer systems were applied: • Solubility buffer system A): 50 mM HCl pH 1.2+Acetonitrile (3:1). • Solubility buffer system B): 50 mM phosphate buffer pH 6.5+Acetonitrile (3:1). • Solubility buffer system C): 50 mM phosphate buffer pH 7.4+Acetonitrile (3:1). • Prepared solutions were stored for 24 hours at 2° C. and 37° C.
After this time course, the samples were centrifuged for 15 min at 2500 RCF to create a 1:5 dilution of the supernatant. Then 2 μl of the dilution were analyzed with UHPLC-UV applying method A.
The chemical stability was rated through the relative loss of purity calculated by the equation: […]

[2] = Protease stability in simulated intestinal fluids (FaSSIF) (Table 7); format: in vitro ADME; conditions: fassif with pancreatin, 37° C.; for remaining at 1 h, 1 µM: 60 min, read-out: Remaining percentage of peptide compound, FaSSIF 60 (min); for remaining at 2 h, 1 µM: 120 min, read-out: Remaining percentage of peptide compound, FaSSIF 120 (min); for remaining at 4 h, 1 µM: 240 min, read-out: Remaining percentage of peptide compound, FaSSIF 240 (min)
Outline: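 1 μM peptide incubated at 37° C in simulated fluid (pancreatin-SIF prepared from pancreatin in SIF concentrate). Samples quenched with acidified ethanol at 0, 60, 120 and 240 min and analysed by LC-MS/MS. Percentage remaining from peak area relative to T0 (100%).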

[3] = system: IL-23 induced STAT3 signaling (IL-23 receptor) in HEK-Blue IL-23 cells; test: Inhibition of IL-23 induced STAT3 signaling in HEK-Blue IL-23 cells, SEAP reporter (Table 9); format: cell-based; conditions: human IL23 0.25 ng/ml, overnight, read-out: Inhibition of IL-23 induced pSTAT3 (IC50 nM)
Outline: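 HEK-Blue IL-23 reporter cells (10,000/well) pre-incubated 60 min at 37 °C with serially diluted peptides, then stimulated overnight with human IL-23 at 0.25 ng/ml final. SEAP in supernatant read by QUANTI-Blue, 45 min room temperature, OD 620–655 nm; dose-response curve fitting.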

[4] = Solubility of peptide compounds in buffer formulations (Table 5); format: physicochemical; conditions: target 1 mg/ml
Outline: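 Peptide solids, dried from DMSO stock, were taken up at 1 mg/mL in 50 mM HCl pH 1.2, or 50 mM phosphate pH 6.5 or pH 7.4. After 2 h gentle agitation and filtration (0.45 μm), solubility was determined by UHPLC-UV peak area against a DMSO standard of known concentration.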

[5] = Protease stability in simulated gastric fluids (FaSSGF) (Table 7); format: in vitro ADME; conditions: fassgf with pepsin, 60 min, 37° C., read-out: Remaining percentage of peptide compound, FaSSGF 60 (min)
Outline: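 Peptides at 1 μM final were incubated at 37 °C in simulated gastric fluid with pepsin (320 mg per 100 mL SGF concentrate). Samples were quenched with ethanol (0.1% HCOOH) at 0, 60, 120 and 240 min and analysed by LC-MS/MS. Percent remaining is the peak area relative to T0 (100%).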

[6] = 50 mM phosphate buffer pH 6.5 + acetonitrile (3:1), read-out: Chemical stability (relative purity loss), Buffer pH 6.5
[7] = 50 mM phosphate buffer pH 7.4 + acetonitrile (3:1), read-out: Chemical stability (relative purity loss), Buffer pH 7.4
[8] = 50 mm hcl + acetonitrile, Buffer pH 1.1 (head; method: 50 mM HCl pH 1.2 + acetonitrile 3:1), read-out: Chemical stability (relative purity loss), Buffer pH 1.1
[9] = Buffer pH 1.1 (head; method: 50 mM HCl pH 1.2), 2 h agitation, read-out: Solubility, Buffer pH 1.1
[10] = aqueous buffer, 50 mM phosphate buffer pH 6.5, 2 h agitation, read-out: Solubility, Buffer pH 6.5
[11] = aqueous buffer, 50 mM phosphate buffer pH 7.4, 2 h agitation, read-out: Solubility, Buffer pH 7.4

Row | SMILES | degraded at 24 h [1, 6] [%] | degraded at 24 h [1, 7] [%] | degraded at 24 h [1, 8] [%] | remaining at 1 h, 1 µM [2] [%] | remaining at 2 h, 1 µM [2] [%] | remaining at 4 h, 1 µM [2] [%] | IC50 [3] [nM] | solubility at 2 h [4, 9] [µg/mL] | solubility at 2 h [4, 10] [µg/mL] | solubility at 2 h [4, 11] [µg/mL] | remaining at 1 h, 1 µM [5] [%]
1 | Cc1cccc2c(C[C@@H]3NC(=O)CCCCCCCCC(=O)N(C)CCCC[C@@H](C(=O)NCC(=O)NCCc4cccnc4)NC(=O)C(C)(C)NC(=O)[C@H](Cc4ccc5ccccc5c4)NC(=O)[C@H](Cc4ccc(OCCN(C)C)cc4)NC(=O)C4(CCOCC4)NC(=O)[C@H](CC(C)C)NC3=O)c[nH]c12 [compound 17] ([Trp(7-Me)]L[Thp]Y(Me2NCH2CH2)[2Nal][Aib][Lys(Me)]G-{NH(2-(3-pyridyl)ethyl)}; linker N-7 via Sebacoyl) | 0 | 0 | 0 | 95 | 96 | 95 | 14.3 | ≥ 1410 | < 10 | < 10 | 13
2 | CC(=O)NCCCC[C@@H]1NC(=O)[C@H](Cc2c[nH]c3c(C)cccc23)NC(=O)CCCCCN(C)CCCCN(C)CCCC[C@@H](C(=O)N[C@@H](CC(N)=O)C(=O)N[C@@H](Cc2cccnc2)C(=O)N(C)CC(N)=O)NC(=O)[C@](C)(CCCCN(C)C)NC(=O)[C@H](Cc2ccc3ccccc3c2)NC(=O)[C@H](Cc2ccc(OCCN(C)C)cc2)NC(=O)C2(CCOCC2)NC1=O [compound 34] ([Trp(7-Me)]K(Ac)[Thp]Y(Me2NCH2CH2)[2Nal][αMeLys(Me2)][Lys(Me,(CH2)4NMe(CH2)5CO)]N[3Pal][Sar]-NH2; lactam N-7) | 0 | 0 | 0 | 98 | 98 | 100 | 1.34 | ≥ 1200 | ≥ 1120 | ≥ 1120 | 94
3 | CN(C)CCOc1ccc(C[C@@H]2NC(=O)C3(CCOCC3)NC(=O)[C@H](CCC(N)=O)NC(=O)[C@H](Cc3c[nH]c4ccccc34)NC(=O)CCCCN(C)CCCCN(C)CCCC[C@@H](C(=O)N[C@@H](CO)C(=O)N[C@@H](Cc3cccnc3)C(=O)N(C)CC(N)=O)NC(=O)C3(CCOCC3)NC(=O)[C@H](Cc3ccc4ccccc4c3)NC2=O)cc1 [compound 43] (WQ[Thp]Y(Me2NCH2CH2)[2Nal][Thp][Lys(Me,(CH2)4NMe(CH2)4CO)]S[3Pal][Sar]-NH2; lactam N-7) | 0 | 0.7 | 5.2 | 96 | 84 | 75 | 2.02 | ≥ 970 | ≥ 1050 | ≥ 1220 | 71
4 | Cc1cccc2c(C[C@@H]3NC(=O)CCCCN(C)CCCCN(C)CCCC[C@@H](C(=O)NCC(=O)N[C@@H](Cc4cccnc4)C(=O)N(C)CC(N)=O)NC(=O)C(C)(C)NC(=O)[C@H](Cc4ccc5ccccc5c4)NC(=O)[C@H](Cc4ccc(OCCN(C)C)cc4)NC(=O)C4(CCOCC4)NC(=O)[C@H](CCC(N)=O)NC3=O)c[nH]c12 [compound 28] ([Trp(7-Me)]Q[Thp]Y(Me2NCH2CH2)[2Nal][Aib][Lys(Me,(CH2)4NMe(CH2)4CO)]G[3Pal][Sar]-NH2; lactam N-7) | 0 | 0 | 6.7 | 97 | 98 | 98 | 2.14 | ≥ 1200 | ≥ 1060 | ≥ 990 | 101
5 | CC(=O)NCCCC[C@@H]1NC(=O)[C@H](Cc2c[nH]c3c(C)cccc23)NC(=O)CCCCCCCCCCNC(=O)CC[C@@H](C(=O)N[C@@H](CC(N)=O)C(=O)N[C@@H](Cc2cccnc2)C(=O)N(C)CC(N)=O)NC(=O)C(C)(C)NC(=O)[C@H](Cc2ccc3ccccc3c2)NC(=O)[C@H](Cc2ccc(OCCN(C)C)cc2)NC(=O)C2(CCOCC2)NC1=O [compound 16] ([Aun][Trp(7-Me)]K(Ac)[Thp]Y(Me2NCH2CH2)[2Nal][Aib]EN[3Pal][Sar]-NH2; lactam N-8) | 0 | 0.6 | 3.8 | 84 | 85 | 84 | 0.37 | ≥ 950 | 760 (≈ 458 µM) | 260 (≈ 157 µM) | 88
6 | CN(C)CCOc1ccc(C[C@@H]2NC(=O)C3(CCOCC3)NC(=O)[C@H](CCC(N)=O)NC(=O)[C@H](Cc3c[nH]c4ccccc34)NC(=O)CCCCN(C)CCCCN(C)CCCC[C@@H](C(=O)N[C@@H](CO)C(=O)N[C@@H](Cc3cccnc3)C(=O)N(C)CC(N)=O)NC(=O)C(C)(C)NC(=O)[C@H](Cc3ccc4ccccc4c3)NC2=O)cc1 [compound 41] (WQ[Thp]Y(Me2NCH2CH2)[2Nal][Aib][Lys(Me,(CH2)4NMe(CH2)4CO)]S[3Pal][Sar]-NH2; lactam N-7) | 0 | 0.4 | 5.8 | 93 | 93 | 81 | 4 | ≥ 1020 | ≥ 960 | ≥ 1020 | 95
7 | Cc1cccc2c(C[C@@H]3NC(=O)CCCCCCCCCCNC(=O)CC[C@@H](C(=O)N[C@@H](CC(N)=O)C(=O)N[C@@H](Cc4cccnc4)C(=O)N(C)CC(N)=O)NC(=O)[C@](C)(CCCCN(C)C)NC(=O)[C@H](Cc4ccc5ccccc5c4)NC(=O)[C@H](Cc4ccc(OCCN(C)C)cc4)NC(=O)C4(CCOCC4)NC(=O)[C@H](CCC(N)=O)NC3=O)c[nH]c12 [compound 20] ([Aun][Trp(7-Me)]Q[Thp]Y(Me2NCH2CH2)[2Nal][αMeLys(Me2)]EN[3Pal][Sar]-NH2; lactam N-8) | 0 | 0.1 | 4.9 | 96 | 96 | 97 | 0.23 | ≥ 850 | < 10 | < 10 | 91
8 | Cc1cccc2c(C[C@@H]3NC(=O)CCCCN(C)CCCCN(C)CCCC[C@@H](C(=O)NCC(=O)NCCc4cccnc4)NC(=O)C(C)(C)NC(=O)[C@H](Cc4ccc5ccccc5c4)NC(=O)[C@H](Cc4ccc(OCCN(C)C)cc4)NC(=O)C4(CCOCC4)NC(=O)[C@H](CC(C)C)NC3=O)cn(C)c12 [compound 49] ([X3]L[Thp]Y(Me2NCH2CH2)[2Nal][Aib][Lys(Me,(CH2)4NMe(CH2)4CO)]G-{NH(2-(3-pyridyl)ethyl)}; lactam N-7) | 0 | 0 | 0 | 100 | 100 | 101 | 35.4 | ≥ 900 | 250 (≈ 171 µM) | 40 (≈ 27.4 µM) | 99
